Test results: ChEMBL document CHEMBL1138176, “Synthesis and structure-activity relationship of small-molecule malonyl coenzyme A decarboxylase inhibitors” (J Med Chem, 2006)
In brackets after ≈: the same amount, converted by molar mass. Each block holds one molecule with its values, some of them ahead of it. Activity calls are given as the source filed them. The rule behind the calls is not given here.

What was measured:
[1] = biological target: T1, Malonyl-CoA decarboxylase, mitochondrial (Homo sapiens, UniProt O95822); assay: Inhibition of MCD at 10 uM
T1 sequence (O95822 whole entry): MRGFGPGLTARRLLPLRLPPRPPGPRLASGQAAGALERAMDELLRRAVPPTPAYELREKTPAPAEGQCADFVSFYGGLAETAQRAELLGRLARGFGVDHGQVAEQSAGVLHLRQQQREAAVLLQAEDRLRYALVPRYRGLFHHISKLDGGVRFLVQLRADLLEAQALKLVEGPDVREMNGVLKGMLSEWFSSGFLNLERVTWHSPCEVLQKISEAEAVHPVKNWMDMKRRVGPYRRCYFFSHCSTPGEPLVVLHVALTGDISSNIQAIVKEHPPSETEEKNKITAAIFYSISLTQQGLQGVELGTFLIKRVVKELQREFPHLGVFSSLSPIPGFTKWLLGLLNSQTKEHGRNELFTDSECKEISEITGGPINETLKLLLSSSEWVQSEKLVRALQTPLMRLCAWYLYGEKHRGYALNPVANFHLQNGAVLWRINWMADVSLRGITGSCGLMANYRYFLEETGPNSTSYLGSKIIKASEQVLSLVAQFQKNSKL

[2] = Stability in human liver microsomes at 5 uM
[3] = Solubility in PBS at pH 7.4
[4] = Stability in rat liver microsomes at 5 uM
[5] = Caco-2 cell membrane permeability; settings: human
Sus scrofa = organism: Sus scrofa; assay: Decrease in lactate production in ischemic pig heart; assay type: functional, organism-based

remaining at 5 µM [2]: 87%
solubility [3]: 189 µM (≈ 75.8 µg/mL)
Papp [5]: 68.2 ×10⁻⁶ cm/s
remaining at 5 µM [4]: 9%
Structure (SMILES): CCN(C(=O)N1CCOCC1)c1ccc(C(O)(C(F)(F)F)C(F)(F)F)cc1

remaining at 5 µM [2]: 93%
solubility [3]: 8.7 µM (≈ 3.62 µg/mL)
Papp [5]: 38.7 ×10⁻⁶ cm/s
remaining at 5 µM [4]: 66%
Structure (SMILES): CCN(C(=O)c1ccc(C#N)cc1)c1ccc(C(O)(C(F)(F)F)C(F)(F)F)cc1

remaining at 5 µM [2]: 51%
solubility [3]: 187 µM (≈ 80.6 µg/mL)
Papp [5]: 49.4 ×10⁻⁶ cm/s
remaining at 5 µM [4]: 7%
Structure (SMILES): CCN(CCCCO)C(=O)N(CC)c1ccc(C(O)(C(F)(F)F)C(F)(F)F)cc1

Continued, molecule first:

Structure (SMILES): O=C(Nc1ccccc1)Nc1ccc(C(O)(C(F)(F)F)C(F)(F)F)cc1
IC50 [1]: Not Active

Structure (SMILES): O=C(O)CCCCN(C(=O)N1CCOCC1)c1ccc(C(O)(C(F)(F)F)C(F)(F)F)cc1
remaining at 5 µM [2]: 99%
solubility [3]: 206 µM (≈ 97.1 µg/mL)
remaining at 5 µM [4]: 108%

Structure (SMILES): CC(C)C(=O)Nc1ccc(C(O)(C(F)(F)F)C(F)(F)F)cc1
IC50 [1]: Not Active

Structure (SMILES): O=C(Nc1ccc(C(O)(C(F)(F)F)C(F)(F)F)cc1)N1CCOCC1
IC50 [1]: Not Active

Structure (SMILES): COC(=O)CCCCN(C(=O)N1CCOCC1)c1ccc(C(O)(C(F)(F)F)C(F)(F)F)cc1
Activity (Sus scrofa): Active
